Data reported in paper PMC5004293, “Characterization of FRM-36143 as a new γ-secretase modulator for the potential treatment of familial Alzheimer’s disease” (Alzheimer's Research & Therapy, 2016).

What was measured:
Aβ42 = biological target: T1, Aβ42 (Homo sapiens, UniProt P05067); assay: Aβ aggregation assay (thioflavin T); settings: 10 μM peptide, 25 °C, 18 h
T1 construct: purchased AnaSpec
Protocol: Aβ peptides (AnaSpec, Fremont, CA, USA) were dissolved at a concentration of 1 mg/mL in hexafluoroisopropanol (HFIP). Peptides were then mixed at different molar ratios. HFIP was evaporated in a SpeedVac without heating for 15 min. Peptides and mixtures were kept on ice and reconstituted in 50 mM Tris–HCl, 1 mM EDTA. Peptides (final concentration: 10 μM) were added to thioflavin T (final concentration: 2.5 μM; AnaSpec) in a black 96-well plate. Aggregation was monitored on a SpectraMax M5 plate reader (Molecular Devices, Inc.) at a constant temperature of 25 °C using excitation/emission of 440 nm/480 nm. Readings were recorded in triplicate every 10 min for a period of 18 h.

DHCR24 [1] = settings: cited from earlier work
Notch processing = assay: Notch reporter assay (HeLa 6xCBF1-Luc, NotchΔE); type: cell-based, human; settings: overnight
Protocol: The wild-type CBF1 binding element was cloned in front of the SV40 promoter-driven luciferase reporter construct of pGL3pro (Promega, Madison, WI, USA) using the following oligonucleotides: • CBF1 Fw (5’→3’): […] • CBF1 Rv (5’→3’): […]
Oligonucleotides were phosphorylated using T4 polynucleotide kinase and annealed (by heating to 90 °C and cooling to room temperature in a buffer containing 0.1 M NaCl). Plasmid pGL3pro was cleaved with BglII and dephosphorylated using alkaline phosphatase. The oligonucleotide pair was then ligated using T4 ligase with the linearized plasmid DNA. A clone containing 6 copies of the CBF1 element in front of the SV40 promoter was chosen. The 6xCBF1-RE/SV40 promoter was excised from pGL3 using XhoI and HindIII, and the fragment transferred to the pGL4.17 [luc2/Neo] vector (Promega) was opened with the same restriction enzymes.
The full length human Notch in plasmid pCMV6-XL5 (Origene, Rockville, MD, USA) was used to amplify a truncated form of Notch (NotchΔE) containing the 20-amino-acid (a.a.) signal sequence followed by 5 a.a. […]
HeLa cells stably transfected with the 6xCBF1-Luc reporter were transiently transfected with the NotchΔE construct (4 μg DNA/10^6 cells) using Lipofectamine 2000 (Thermo Fisher, Waltham, MA, USA) in 6-well plates. […] Chemiluminescence was then read on an EnVision plate reader (Perkin Elmer).

[2] = set-up: method as in PMID 24085193; settings: animals; takes 12–14 weeks to appear; cited from earlier work
DHCR24 [3] = biological target: T2, DHCR24 (Homo sapiens, UniProt Q15392); assay: Desmosterol assay in HepG2 cells; type: cell-based
T2 construct: endogenous in cells; host or cells: HepG2 cells
T2 sequence (Q15392 23-516): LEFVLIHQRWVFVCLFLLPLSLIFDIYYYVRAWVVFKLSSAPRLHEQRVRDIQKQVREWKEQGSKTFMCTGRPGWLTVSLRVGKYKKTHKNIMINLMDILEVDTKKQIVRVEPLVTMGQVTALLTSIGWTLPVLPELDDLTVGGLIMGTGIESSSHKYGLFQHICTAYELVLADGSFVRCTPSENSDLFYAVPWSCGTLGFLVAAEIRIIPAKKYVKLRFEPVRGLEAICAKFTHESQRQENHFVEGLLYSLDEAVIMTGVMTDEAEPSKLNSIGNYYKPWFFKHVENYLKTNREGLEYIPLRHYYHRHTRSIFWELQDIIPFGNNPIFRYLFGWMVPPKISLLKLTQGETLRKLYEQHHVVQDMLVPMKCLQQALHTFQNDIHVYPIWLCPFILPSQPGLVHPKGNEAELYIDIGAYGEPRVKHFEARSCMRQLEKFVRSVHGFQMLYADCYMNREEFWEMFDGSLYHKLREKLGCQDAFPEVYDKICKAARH
Protocol: HepG2 cells were grown in Eagle's minimal essential medium (EMEM) containing 10 % fetal bovine serum, penicillin (50 U/mL), and streptomycin (50 ug/mL) and plated at a density of 1 million cells/well in 6-well plates for the experiment. Four to five days after plating, the cells were washed with Hank’s balanced salt solution (HBSS), and compound treatment applied for 2 h in HBSS. At the end of the treatment, cells were collected, washed with PBS, and pelleted. Sterols were extracted from the cell pellet by adding 100 μL PBS and 3 mL ethylacetate (containing an internal standard of 1 mg/mL d-cholesterol). Tubes were vortexed for 20 min and centrifuged at 2000 × g for 20 min at room temperature. The organic phase was dried under a stream of nitrogen at 40 °C and the samples reconstituted in 65 % methanol. Liquid chromatography-tandem mass spectrometry (LC-MS/MS) analysis was performed using a Shimadzu 20-series UFLC (Shimadzu, Kyoto, Japan) and an API 5500 (Applied Biosystems, Foster City, CA, USA) with a Hypersil GOLD column (100X2.1 mM; Thermo Fisher).

T1 sequence (P05067 672-713 limits assumed): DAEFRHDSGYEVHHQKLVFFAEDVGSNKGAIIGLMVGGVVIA

## Aβ42: Aβ peptide (AnaSpec) used in the aggregation assay
Aβ42
  Increase in aggregates over time (thioflavin T fluorescence): > 15 fold

## COc1nc(/C=C/c2nc3n(n2)CCC[C@H]3c2ccccc2C(F)(F)F)ccc1-n1cnc(C)c1 [E2212]
DHCR24 [1]
  DHCR24 off-target activity: did not have this off-target activity

## C[C@H](NC(=O)[C@@H](O)c1cc(F)cc(F)c1)C(=O)N[C@@H]1C(=O)N(C)c2ccccc2-c2ccccc21 [LY-411,575, reference compound]
Notch processing
  IC50: 0.9 nM

## COc1cc(/C=C2\CCCN([C@@H](C)c3ccc(F)cc3)C2=O)ccc1-n1cnc(C)c1 [E2012]
DHCR24 [1]
  Inhibition of DHCR24: inhibit
[2]
  Lenticular opacity: cause lenticular opacity
DHCR24 [3]; 1 μM
  Desmosterol induction (change from DMSO): ~ 60 fold
DHCR24 [3]; desmosterol accumulation, 2 h
  IC50: 63 nM
